Source: patent publication US9140692B1, “Methods of identifying glycopeptides recognized by disease-associated auto-antibodies” (Glycozym, Inc., priority 2010, dated 2015)
Entries after “also recorded” stand apart in the source; their conditions may differ.

Tests used:
[1] = system: human IgG antibodies (cancer-associated auto-antibodies in serum); test: Glycopeptide microarray screening of the 96 paired peptide/GalNAc-glycopeptide library with human sera; assay type: binding; conditions: serum of newly diagnosed prostate cancer patient #762, 1:25 dilution, labeled anti-human IgG; FIG. 2
Description: A panel of human sera was obtained from CHTN (Cooperative Human Tissue Network) and Asterand Inc., under the guidelines of approved agreements by the providers. Sera obtained were from control individuals (“normal”) (n=31) and from newly diagnosed cancer patients (n=147) with pancreatic, breast, colon, lung, prostate or ovary primary cancers. Briefly, for cancer sera, all blood samples were obtained on or near date of diagnosis, and serum was processed immediately, flash frozen and stored at −70° C. until shipment. Serum samples received from the providers as frozen aliquots generally of 1-2 mL were brought to room temperature, vortexed and distributed into 20-100 μL aliquots in closeable Eppendorf tubes (vWR) (pre-labeled), and immediately frozen and stored at −70° C. until use.
Glycopeptides (20-mers with and without a single GalNAc residue at position 12) and control structures (corresponding unglycosylated peptides) were printed on Corning (Corning, N.Y.), Scienion (Germany) or Schott Nexterion® Slide H or Schott Nexterion® Slide H MPX 16 (Schott AG, Mainz, Germany) by JPT (Germany). Triplicates or quadruplicates of all compounds were printed at optimal concentrations (1-50 μM) or 50× excess relative to scale of synthesis for spot-synthesized glycopeptides printed without purification. After printing, slides were incubated for 1 hour (h) in a humidified hybridization chamber with 70-100% relative humidity and stored until use at 4° C. Unspotted slide areas were blocked for 1 h with 25 mM ethanolamine in 100 mM sodium borate pH 8.5. If an enzyme step was needed either to increase sites of GaLNac attachments in peptides or extend O-glycans to T, STn, core 3 or other structures, addition of the enzyme reaction mixture in 25-35 μL was made in appropriate wells and the slide incubated at 37° C. for 1 h, after which it was washed in PBS/0.05% Tween and then PBS, and then spun dry.
Human sera (usually diluted 1:25), monoclonal antibodies, lectins and the like were added in 25 μL and the slide left at room temperature for 2 h in a moist, humid chamber after which it was washed as above and spun dry (if no superstructure). Secondary antibodies were added at appropriate concentrations (for human sera, usually 1:1500 for anti-human IgG with a Cy3 chromophore). In some cases, for some controls, lectin-Cy3 was used directly as final step. The final step was washing as above, with a brief de-ionized water wash and the slide spun dry for scanning Analysis was made on a GenePix 4200AL Scanner at PMT 400 and power mode 10-50. Data were analyzed and plotted using Microsoft Excel.
Glycopeptides (20-mers with and without a single GalNAc residue at position 12) were printed in triplicates (horizontal) on Scineon 16-well slides by JPT (Germany) and bound human IgG antibodies detected by a labeled secondary anti-human IgG antibody. FIG. 2 illustrates examples of reactivities of serum (1:25 dilution) from a newly diagnosed prostate cancer patient (#762 in Panel A) and a normal control serum from a healthy individual (#174 in Panel B) on the library of 96 paired peptides/GalNAc-glycopeptides as designated in Table II. Candidate cancer-associated IgG antibodies identified in the cancer serum directed to GalNAc glycopeptide epitopes are indicated by open circles labeled 20/21, 62/63, and 86/87 for the paired peptide and GalNAc glycopeptides, respectively. […]
FIG. 4 illustrates results of screening 147 cancer sera and 31 normal sera on the glycopeptide pair #62/63. FIG. 5 illustrates results of screening 147 cancer sera and 31 normal sera on the glycopeptide pair #86/87.

[2] = system: human IgG antibodies from cancer patients; test: Microarray screening of the larger GalNAc O-glycopeptide library (Table III) with human cancer and control sera; assay type: binding; conditions: for reactivity with IgG from newly diagnosed cancer patients compared to normal control sera: FIG. 6, sera at 1:20 dilution, anti-human-IgG Cy3; for reactivity with human IgG from cancer patients compared to controls: resynthesized glycopeptides printed at 50 μM, cancer sera and 145 control normal sera
Description: FIG. 6A: glycopeptides 889 (SEQ ID NO: 134), 275a (SEQ ID NO: 86), and 585 (SEQ ID NO: 109). FIG. 6B: glycopeptides 893 (SEQ ID NO: 135), 931-C3 (SEQ ID NO: 146), and 852-C3 (SEQ ID NO: 145). FIG. 6C: gycopeptides 873 (SEQ ID NO: 132) and 690 (SEQ ID NO: 116). The following human sera were used for FIGS. 6A and 6B: 32 ovarian cancer (O), 38 breast cancer (B), 54 colon cancer (C), 17 lung cancer (L), as well as 145 normal sera (N) (Asterand Corp). The following sera were used for FIG. 6C: 32 ovarian cancer (O), 38 breast cancer […], 54 colon cancer (C), 42 lung cancer (L), 52 pancreactic cancer (Pn), 35 prostatic cancer (Pr), 8 inflammatory disease (In), 8 benign controls (Bn), and 145 healthy controls (N). Sera were screened at 1:20 dilution. Anti-human-IgG conjugated to Cy3 was used as the secondary detection unit and slides were scanned with a GenePix 4200AL Microarray Scanner.
A larger library of GalNAc O-glycopeptides designed with GalNAc linked to serine or threonine at position 12 in 20-mer peptides was produced as described in Example 1. Peptides were selected among cell membrane and secreted human proteins that contain serine and threonine residues that are predicted to be O-glycosylated by the NetOGlyc algorithm (Julenius et al. 2005). A total of 960 GalNAc glycopeptides were synthesized at 0.5 mg scale (Sigma) and printed on microarray hydrogel slides (Schott Nexterion) as described in Example 1. Slides were reacted with human cancer sera (ovarian, breast, colon, lung, pancreas, prostate, 235 total sera) and control sera (145 healthy, 20 inflammatory, 20 benign tumor). Glycopeptides preferentially reactive with human IgG antibodies from cancer patients compared to controls were selected for resynthesis at 5 mg scale with amidated C-terminus (New England Peptide (Gardner, Mass.) (Table III). Resynthesized glycopeptides were reprinted on microarray slides at 50 μM and reacted with human cancer sera (Total 286 sera: 32 ovarian cancer (O), 38 breast cancer (B), 54 colon cancer (C), 17 lung cancer (L), and 145 age and sex matched control normal sera as described in Example 1. Table III lists glycopeptides exclusively or preferentially reactive with human IgG from cancer patients compared to controls and examples of reactivities are shown in FIG. 6.
Since IgG antibodies reactive with glycopeptides epitopes recognize both the peptide sequence in close proximity to the O-glycan (i.e., one to five or even eighth residues N- and C-terminal of the O-glycan) as well as the O-glycan structure, it is clear that different glycoforms of one glycopeptide may be recognized by different IgG antibodies and these antibodies may be found in different cancer patients. In this Example, GalNAc-glycopeptides from MUC1 and MUC4 were also produced as the core 3 GlcNAcβ1-3GalNAcα1-O-Ser/Thr glycoform with a recombinant core 3 synthase as described in Example 1.

Substance	reactivity of serum IgG antibodies with printed peptide/GalNAc-glycopeptide [1]	reactivity with IgG from newly diagnosed cancer patients compared to normal control sera [2]	reactivity with human IgG from cancer patients compared to controls [2]
TPTPKEKPEAGTYSVNNGND [Peptide 63, derived from LAMP2]	specifically reacting; also recorded: labels		
H2N-HDVETQFNQYKTEAASRYNL-amide (H-HDVETQFNQYKTEAASRYNL-NH2; also: O-GalNAc glycopeptide, sites not given here) [Peptide 889]		reactive with IgG from newly diagnosed cancer patients	
H2N-SLASQATDIFST[GlcNAc] VPPTPPSI-amide [Peptide 931-C3]		reactive with IgG from newly diagnosed cancer patients	exclusively recognized by IgG antibodies in sera from cancer patients
H2N-VPVTRPALGSTT[GlcNAc] PPAHDVTS-amide (H-VPVTRPALGSTTPPAHDVTS-NH2; not fully specified (residue 12)) [Peptide 852-C3]		reactive with IgG from newly diagnosed cancer patients	exclusively recognized by IgG antibodies in sera from cancer patients
SHHSDESDELVTDFPTDLPA [Peptide 20, derived from SPP1]	do not react; also recorded: not the corresponding peptide		
SHHSDESDELVTDFPTDLPA [Peptide 21, derived from SPP1]	specifically reacting; also recorded: labels		
H2N-PGTSTTPSQPNSAGVQDTEM-amide (H-PGTSTTPSQPNSAGVQDTEM-NH2; also: O-GalNAc glycopeptide, sites not given here) [Peptide 690]		reactive with IgG from newly diagnosed cancer patients	
SESFPHPGFNMSLLENHTRQ [Peptide 87, derived from KLK1]	specifically reacting; also recorded: labels		
H2N-TDCGGPKDHPLTCDDPRFQA-amide (H-TDCGGPKDHPLTCDDPRFQA-NH2; cysteine pairing not given here; also: O-GalNAc glycopeptide, site not shown) [Peptide 585]		reactive with IgG from newly diagnosed cancer patients	
TPTPKEKPEAGTYSVNNGND [Peptide 62, derived from LAMP2]	do not react; also recorded: not the corresponding peptide		
H2N-TKTDASSTHHSTVPPLTSSN-amide (H-TKTDASSTHHSTVPPLTSSN-NH2; also: O-GalNAc glycopeptide, sites not given here) [Peptide 873]		reactive with IgG from newly diagnosed cancer patients	
SESFPHPGFNMSLLENHTRQ [Peptide 86, derived from KLK1]	do not react; also recorded: not the corresponding peptide		
H2N-ASRYNLTISDVSVSDVPFPF-amide (H-ASRYNLTISDVSVSDVPFPF-NH2; also: O-GalNAc glycopeptide, sites not given here) [Peptide 893]		reactive with IgG from newly diagnosed cancer patients	
H2N-LAKMYYSAVEPTKDIFTGLI-amide (H-LAKMYYSAVEPTKDIFTGLI-NH2; also: O-GalNAc glycopeptide, sites not given here) [Peptide 275a]		reactive with IgG from newly diagnosed cancer patients	
